Experiment [1] concerns the target Vascular endothelial growth factor receptor 2 (Homo sapiens, UniProt P35968). Briefly: Selectivity interaction (Kinase panel (enzymatic assay)) EUB0000595a KDR.
Experiment [2] concerns the target T1, Serine/threonine-protein kinase TAO2 (Homo sapiens) (UniProt Q9UL54).
T1 sequence (whole entry): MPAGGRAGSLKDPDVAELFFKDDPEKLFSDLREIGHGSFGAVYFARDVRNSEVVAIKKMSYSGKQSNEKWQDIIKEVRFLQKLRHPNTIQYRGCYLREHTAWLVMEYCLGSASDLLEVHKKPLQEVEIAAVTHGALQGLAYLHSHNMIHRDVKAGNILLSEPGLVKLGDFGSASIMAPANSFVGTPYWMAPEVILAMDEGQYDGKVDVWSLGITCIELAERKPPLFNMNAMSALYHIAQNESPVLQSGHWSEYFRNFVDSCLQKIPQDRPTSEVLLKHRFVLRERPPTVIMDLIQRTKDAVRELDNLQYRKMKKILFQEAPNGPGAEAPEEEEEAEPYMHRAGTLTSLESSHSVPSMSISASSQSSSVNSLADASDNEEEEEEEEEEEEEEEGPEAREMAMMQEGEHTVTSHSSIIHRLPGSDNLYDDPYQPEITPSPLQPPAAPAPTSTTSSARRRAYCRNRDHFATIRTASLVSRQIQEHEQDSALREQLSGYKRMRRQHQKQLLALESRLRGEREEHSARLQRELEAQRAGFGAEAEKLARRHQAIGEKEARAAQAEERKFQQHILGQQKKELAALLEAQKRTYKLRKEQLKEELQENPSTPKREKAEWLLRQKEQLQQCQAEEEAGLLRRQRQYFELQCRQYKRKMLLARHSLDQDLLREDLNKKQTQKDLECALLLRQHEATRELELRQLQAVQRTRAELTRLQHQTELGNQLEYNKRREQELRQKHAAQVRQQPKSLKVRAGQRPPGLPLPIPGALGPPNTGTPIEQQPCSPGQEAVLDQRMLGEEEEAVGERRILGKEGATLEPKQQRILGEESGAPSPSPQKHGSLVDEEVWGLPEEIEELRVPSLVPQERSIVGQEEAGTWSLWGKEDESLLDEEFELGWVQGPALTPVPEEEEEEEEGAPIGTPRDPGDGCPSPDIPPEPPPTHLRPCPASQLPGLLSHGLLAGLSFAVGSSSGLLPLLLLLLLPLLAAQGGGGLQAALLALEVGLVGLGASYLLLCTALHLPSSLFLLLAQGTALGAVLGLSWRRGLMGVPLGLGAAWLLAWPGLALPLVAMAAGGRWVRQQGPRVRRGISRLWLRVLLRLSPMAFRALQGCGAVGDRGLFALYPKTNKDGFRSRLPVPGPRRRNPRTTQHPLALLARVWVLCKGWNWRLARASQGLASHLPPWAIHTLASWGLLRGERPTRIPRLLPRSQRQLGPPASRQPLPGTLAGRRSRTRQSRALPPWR
Briefly: Selectivity interaction (Ambit KINOMEscan and KiNATiv profiling in Jurkat cells) EUB0000090b TAOK2. Format: cell-based. As to conditions: at 1 µM.

In experiment [3] the target is T2, Serine/threonine-protein kinase RIO3 (Homo sapiens) (UniProt O14730).
T2 sequence (whole entry): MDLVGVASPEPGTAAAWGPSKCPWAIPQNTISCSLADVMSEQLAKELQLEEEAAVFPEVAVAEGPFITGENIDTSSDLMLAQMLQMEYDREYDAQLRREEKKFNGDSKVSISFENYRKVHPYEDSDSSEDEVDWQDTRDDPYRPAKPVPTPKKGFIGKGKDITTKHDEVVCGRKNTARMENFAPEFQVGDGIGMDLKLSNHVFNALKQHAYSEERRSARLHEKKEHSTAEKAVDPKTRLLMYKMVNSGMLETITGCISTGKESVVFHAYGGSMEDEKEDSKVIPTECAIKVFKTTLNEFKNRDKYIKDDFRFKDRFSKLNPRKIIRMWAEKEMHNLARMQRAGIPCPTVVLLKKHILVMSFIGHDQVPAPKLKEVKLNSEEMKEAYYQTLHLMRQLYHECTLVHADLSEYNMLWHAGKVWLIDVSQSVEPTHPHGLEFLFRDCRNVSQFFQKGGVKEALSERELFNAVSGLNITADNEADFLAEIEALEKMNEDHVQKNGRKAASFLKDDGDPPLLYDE
Briefly: Selectivity interaction (KinomeScan (DiscoverX)) EUB0001049a RIOK3. The settings on record: at 1 µM.

Experiment [4] has as its target Ribosomal protein S6 kinase alpha-4 (Homo sapiens) (UniProt O75676). Nature of the experiment: Selectivity interaction (KinomeScan (DiscoverX)) EUB0001049a RPS6KA4. The settings on record: at 1 µM.
In experiment [5] the target is Serine/threonine-protein kinase 10 (Homo sapiens) (UniProt O94804). Nature of the experiment: Selectivity interaction (Kinase panel (KiNativ target engagement assay in Jurkat cells)) EUB0001635a STK10. Format: cell-based. As to conditions: Selectivity number of off-targets 0.0, Selectivity number of targets 233.0, Source Knowledge https://www.sciencedirect.com/science/article/pii/S2451945619300674?via%3Dihub, at 1 µM.
Chain of Serine/threonine-protein kinase 10 (Homo sapiens) (O94804 whole entry, looked up): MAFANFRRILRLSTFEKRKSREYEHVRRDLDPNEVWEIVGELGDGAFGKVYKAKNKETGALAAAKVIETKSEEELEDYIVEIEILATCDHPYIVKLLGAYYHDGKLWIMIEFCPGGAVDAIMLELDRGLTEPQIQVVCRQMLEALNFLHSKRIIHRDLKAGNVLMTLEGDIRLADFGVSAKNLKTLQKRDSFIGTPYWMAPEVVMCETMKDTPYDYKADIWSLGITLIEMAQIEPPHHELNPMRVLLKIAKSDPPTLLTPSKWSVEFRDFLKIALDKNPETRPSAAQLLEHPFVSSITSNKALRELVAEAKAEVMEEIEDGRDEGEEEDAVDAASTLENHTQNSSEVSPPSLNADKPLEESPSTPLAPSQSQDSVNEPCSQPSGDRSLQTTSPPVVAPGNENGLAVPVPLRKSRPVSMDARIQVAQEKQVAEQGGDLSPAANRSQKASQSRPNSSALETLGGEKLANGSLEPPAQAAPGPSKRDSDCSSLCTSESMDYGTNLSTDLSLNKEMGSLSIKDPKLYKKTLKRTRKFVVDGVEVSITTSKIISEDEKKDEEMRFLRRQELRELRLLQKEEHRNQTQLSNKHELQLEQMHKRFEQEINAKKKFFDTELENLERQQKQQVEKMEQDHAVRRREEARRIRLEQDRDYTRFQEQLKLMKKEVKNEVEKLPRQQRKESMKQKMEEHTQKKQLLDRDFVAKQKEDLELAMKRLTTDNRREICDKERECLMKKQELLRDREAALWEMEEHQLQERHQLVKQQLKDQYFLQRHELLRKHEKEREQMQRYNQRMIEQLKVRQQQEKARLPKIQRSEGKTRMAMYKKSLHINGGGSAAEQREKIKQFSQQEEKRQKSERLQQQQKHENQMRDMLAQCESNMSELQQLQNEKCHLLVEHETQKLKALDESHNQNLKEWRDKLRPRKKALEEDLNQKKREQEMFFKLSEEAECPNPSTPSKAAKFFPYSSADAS

This passage reports IC50, % of control and % of engagement results from ChEMBL document CHEMBL5465560, “Selectivity Literature for EUbOPEN Chemogenomic Library” (2024).

Molecules are shown by their SMILES.

The IC50 is the concentration needed to halve the response being measured. A high value points to lower potency.

Chain of Vascular endothelial growth factor receptor 2 (P35968 whole entry): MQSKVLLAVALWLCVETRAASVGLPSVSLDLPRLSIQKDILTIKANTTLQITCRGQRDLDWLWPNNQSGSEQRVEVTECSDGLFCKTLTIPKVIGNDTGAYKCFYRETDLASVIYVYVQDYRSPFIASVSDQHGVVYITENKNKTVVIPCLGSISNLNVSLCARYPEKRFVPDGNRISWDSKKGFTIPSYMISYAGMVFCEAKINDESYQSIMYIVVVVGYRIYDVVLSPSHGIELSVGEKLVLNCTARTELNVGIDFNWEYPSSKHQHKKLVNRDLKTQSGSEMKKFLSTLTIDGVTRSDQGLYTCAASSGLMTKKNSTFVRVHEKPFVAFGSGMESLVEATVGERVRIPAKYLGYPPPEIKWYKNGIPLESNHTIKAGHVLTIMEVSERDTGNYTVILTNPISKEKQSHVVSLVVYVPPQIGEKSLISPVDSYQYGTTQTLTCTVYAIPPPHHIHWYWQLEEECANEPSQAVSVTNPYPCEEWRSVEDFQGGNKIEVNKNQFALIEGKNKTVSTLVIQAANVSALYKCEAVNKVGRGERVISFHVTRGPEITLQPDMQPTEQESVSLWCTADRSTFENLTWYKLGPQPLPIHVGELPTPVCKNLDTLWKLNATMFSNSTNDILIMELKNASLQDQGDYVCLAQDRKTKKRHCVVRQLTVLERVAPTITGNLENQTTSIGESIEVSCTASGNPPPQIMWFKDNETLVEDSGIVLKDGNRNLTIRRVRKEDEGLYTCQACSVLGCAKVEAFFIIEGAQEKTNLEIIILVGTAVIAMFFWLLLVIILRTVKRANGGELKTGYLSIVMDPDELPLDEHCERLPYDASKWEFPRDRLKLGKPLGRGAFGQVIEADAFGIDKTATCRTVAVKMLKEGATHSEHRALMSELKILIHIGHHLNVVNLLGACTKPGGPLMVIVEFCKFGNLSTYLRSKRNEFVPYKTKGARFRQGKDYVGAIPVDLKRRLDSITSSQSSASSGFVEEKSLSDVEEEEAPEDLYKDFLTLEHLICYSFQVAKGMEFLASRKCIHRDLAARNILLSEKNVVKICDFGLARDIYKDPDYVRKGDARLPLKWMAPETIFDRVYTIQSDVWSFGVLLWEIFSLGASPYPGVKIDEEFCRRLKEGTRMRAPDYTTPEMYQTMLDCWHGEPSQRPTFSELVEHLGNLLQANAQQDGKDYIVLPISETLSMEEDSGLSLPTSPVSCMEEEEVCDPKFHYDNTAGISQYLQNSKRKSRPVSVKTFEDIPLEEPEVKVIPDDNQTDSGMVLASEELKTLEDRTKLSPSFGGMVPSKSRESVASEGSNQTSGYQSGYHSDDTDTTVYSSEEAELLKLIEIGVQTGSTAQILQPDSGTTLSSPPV
Chain of Ribosomal protein S6 kinase alpha-4 (Homo sapiens) (O75676 whole entry, looked up): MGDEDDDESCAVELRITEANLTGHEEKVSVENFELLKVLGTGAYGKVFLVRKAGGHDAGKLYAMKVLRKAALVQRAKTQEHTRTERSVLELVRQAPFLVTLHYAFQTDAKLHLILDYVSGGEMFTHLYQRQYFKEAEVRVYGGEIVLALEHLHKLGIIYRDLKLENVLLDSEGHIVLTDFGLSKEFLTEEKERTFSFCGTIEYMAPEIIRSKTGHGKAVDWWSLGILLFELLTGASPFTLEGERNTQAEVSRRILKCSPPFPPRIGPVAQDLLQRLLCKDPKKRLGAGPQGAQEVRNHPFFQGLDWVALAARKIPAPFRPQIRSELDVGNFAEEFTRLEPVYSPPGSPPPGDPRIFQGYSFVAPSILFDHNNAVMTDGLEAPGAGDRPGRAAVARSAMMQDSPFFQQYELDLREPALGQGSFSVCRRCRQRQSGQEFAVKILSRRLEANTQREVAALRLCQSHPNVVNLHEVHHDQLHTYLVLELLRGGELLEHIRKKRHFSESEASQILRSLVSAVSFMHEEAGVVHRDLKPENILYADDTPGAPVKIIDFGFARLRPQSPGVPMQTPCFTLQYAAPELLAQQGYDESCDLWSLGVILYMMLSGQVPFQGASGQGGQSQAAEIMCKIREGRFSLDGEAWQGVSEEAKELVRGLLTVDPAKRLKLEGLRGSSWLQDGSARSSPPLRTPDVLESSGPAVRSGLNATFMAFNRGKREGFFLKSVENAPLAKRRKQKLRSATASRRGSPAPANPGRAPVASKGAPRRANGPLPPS

Compound `COCC(=O)NC/C=C/c1ccc2ncnc(Nc3ccc(Oc4ccc(C)nc4)c(C)c3)c2c1` [CP-724714] showed an IC50 in experiment [1] of more than 10 µM.

For the compound `CN(C)C/C=C/C(=O)Nc1ccc(C(=O)N2CCCC(Nc3ncc(Cl)c(-c4c[nH]c5ccccc45)n3)C2)cc1` (stereo not given), the % of control in experiment [2] was 50%.

For the compound `COc1cc(Nc2nc(C)cc(-c3cnn4nc(OC)ccc34)n2)cc(C(F)(F)F)c1`, the % of control was 86% in experiment [3] and 96% in experiment [4].

Take `C=CC(=O)Nc1ccc(C(=O)Nc2[nH]nc3c2CN(C(=O)N[C@H](CN(C)C)c2ccccc2)C3(C)C)cc1`: the % of engagement in experiment [5] was -2.2%.
